Assay results from patent US20230041692A1, “NOVEL PEPTIDE HORMONES” (THE UNIVERSITY OF SYDNEY, priority 2019, published 2023).

System: C57BL/6J male mice
Assay: Crossover peptide injection trial in mice (food intake and body weight)
Type: in vivo
Conditions: intraperitoneal injection at 5pm, change measured 16 h after injection, C57BL/6J male mice at 14 weeks, compared to vehicle injection
Method: FIG. 6: Analysis of erusiolin producing cells, secretion in response to food and effects of erusiolin injection in mice. […] Staining is consistent with erusiolin positivity in rare enteroendocrine cell populations. […] Each line is one participant. […] Animals were randomised to the sequence of treatment days that were random in order, with washout days between injection treatment days. Peptides were injected at 5pm before the night phase and the change in body weight and food intake measured after 16 h. (n=14) ***P<0.001,*P<0.05. Erusiolin refers to the synthetic peptide of sequence APFLLEDPANQFLRL (SEQ ID NO: 2), DPP4-cleaved refers to the synthetic peptide of sequence FLLEDPANQFLRL (SEQ ID NO: 3).
In these experiments “erusiolin” refers to the synthetic peptide of sequence APFLLEDPANQFLRL (SEQ ID NO: 2), “DPP4-cleaved” refers to the synthetic peptide of sequence FLLEDPANQFLRL (SEQ ID NO: 3). These peptides were synthesised and purified as the TFA-salt by a commercial supplier (Genscript), which generated 10 mg of each peptide at >90% purity. TFA removal and formation of the HCL-peptide salt was performed by freeze-drying the peptide solution (in LC-grade H2O) for 16 h and resuspension in 500 uL of 10 mM HC1 in LC-grade H2O. This solution was then freeze-dried for 16 h. A total of three rounds of 10 mM HC1 resuspension and freeze-drying for 16 h were performed. After the final drying step, the peptides were resuspended in LC-grade H2O. The peptide solutions were analysed for TFA contamination and determination of the peptide concentration using FT-IR spectroscopy. No TFA contamination was observed and the final peptide concentrations were 5 mg/mL in LC-grade H2O. Peptides were diluted in vehicle (1 mg/ml mouse albumin in PBS) before injection.
C57BL/6J male mice at 14 weeks of age were treated with either vehicle, erusiolin, or the DPP4-cleaved peptide in a crossover trial study using intraperitoneal injection of the peptides. Each mouse was randomly allocated to a sequence of treatments. Each sequence had treatments in a random order. One treatment was performed per mouse per day and injections were at 5pm just before the night feeding period. Between each treatment day a washout day was included where no injection was performed to allow the previous days treatment to be degraded and minimise confounding effects. The food intake and body weight of each animal was measured just prior to injection and again 16 h after injection. This enable the calculation of the mass delta (change) for food intake and body mass. A repeated-measures one-way ANOVA was used to determine significance between the vehicle negative control treatment and the other treatments. Statistical analyses were performed using R (version 3.4.3) and processed data was plotted using Tableau (version 10.0.2). […]

| Sequence | body weight | food intake |
| --- | --- | --- |
| APFLLEDPANQFLRL [erusiolin] | significant decrease | significant decrease |
| FLLEDPANQFLRL [DPP4-cleaved] | not significant or less significant | not significant or less significant |
